Assay results from patent US20250248979A1, “NOVEL GPX4 INHIBITORS AND USES THEREOF” (THE TRUSTEES OF COLUMBIA UNIVERSITY IN THE CITY OF NEW YORK, priority 2022, published 2025).

Molecular target: T1, GPX4 (Homo sapiens, UniProt P36969)
T1 sequence (P36969 1-170 isoform P36969-2): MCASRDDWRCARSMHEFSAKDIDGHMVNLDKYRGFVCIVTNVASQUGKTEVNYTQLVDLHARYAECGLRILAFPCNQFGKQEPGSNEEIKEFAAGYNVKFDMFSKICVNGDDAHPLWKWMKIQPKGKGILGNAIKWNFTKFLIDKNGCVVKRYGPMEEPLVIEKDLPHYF
Experiment: GPX4 activity assay in cell lysates (NADPH-coupled)
Assay type: biochemical
Design: endogenous in cells; host or cells: A-673 cell lysate
Settings: not given
Method in brief: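 Native GPX4 in lysates of A-673 cells grown with 20 nM sodium selenite; lysate preincubated with compound 45 min at 37 °C in pH 8.0 buffer with 3 mM GSH, 0.5 mM NADPH and glutathione reductase. Reaction started with phosphatidylcholine hydroperoxide; NADPH consumption followed at 340 nm over 25 min; triplicates.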

SMILES | GPX4 inhibitory activity, result in words
COc1c(Cl)cc(-c2ccc3c(C(=O)NC(C)(C)COC(=O)CCl)nn(C)c3c2)cc1Cl [QW-711] | further increase the inhibitory activity
CC(C)Oc1ncc(-c2ccc3c(C(=O)NC(C)(C)COC(=O)CCl)nn(C)c3c2)cn1 [QW-716] | substantially higher GPX4 inhibitory activities than QW-446

Same assay, conditions: 2.5 μM

GPX4% inhibition at 2.5 μM | GPX4 inhibition | SMILES
95.3 ± 7.6% | – | COc1ccc(-c2ccc3c(C(=O)NC(C)(C)C(C)OC(=O)CCl)nn(C)c3c2)cc1Cl (racemic) [QW-736]
60.9 ± 15.7% | – | CCOCCOc1ccc(-c2ccc3c(C(=O)NC(C)(C)COC(=O)CCl)nn(C)c3c2)cc1 [QW-605]
33.6 ± 6.3% | – | Cn1nc(-n2cc(C(C)(C)COC(=O)CCl)nn2)c2ccc(-c3ccc(OC(F)(F)F)c(Cl)c3)cc21 [QW-677]
−49.5 ± 28.5% | – | Cn1nc(-c2nnc(C(C)(OC(=O)CCl)C(F)(F)F)o2)c2ccc(-c3ccc4c(c3)OCO4)cc21 (centres unmarked) [QW-695]
22.3 ± 37.1% | – | Cn1nc(-n2cc(C(C)(C)COC(=O)CCl)nn2)c2ccc(-c3ccc4c(c3)OCO4)cc21 [QW-696]
98.4 ± 17.6% | – | COc1c(Cl)cc(-c2ccc3c(C(=O)NC(C)(C)COC(=O)CCl)nn(C)c3c2)cc1Cl [QW-711]
68.5 ± 9.4% | – | COc1c(Cl)cc(-c2ccc3c(-n4cc(C(C)(C)COC(=O)CCl)nn4)nn(C)c3c2)cc1Cl [QW-712]
95.3 ± 7.6% | completely inhibited GPX4 | Cn1nc(C(=O)NC(C)(C)COC(=O)CCl)c2ccc(-c3ccc(OC(C)(C)C)cc3)cc21 [QW-715]
86.4 ± 7.3% | – | CC(C)Oc1ncc(-c2ccc3c(C(=O)NC(C)(C)COC(=O)CCl)nn(C)c3c2)cn1 [QW-716]
68.5 ± 9.4% | – | Cn1nc(C(=O)NC(C)(C)C(C)(C)OC(=O)CCl)c2ccc(-c3ccc(N4CCOCC4)c(Cl)c3)cc21 [QW-731]
43.2 ± 14.9% | – | COc1ccc(-c2ccc3c(-n4cc(CCOC(=O)CCl)nn4)nn(C)c3c2)cc1Cl [QW-755]
−31.1 ± 29.6% | – | COc1ccc(-c2ccc3c(C(=O)NC(C)(C)C(C)(C)OC(=O)CCl)nn(C)c3c2)cc1Br [QW-766]
−36.4 ± 19.3% | – | Cn1nc(C(=O)NC(C)(C)C(C)(C)OC(=O)CCl)c2ccc(-c3ccc(OC(C)(C)C)cc3)cc21 [QW-770]
−25.3 ± 6.9% | – | COc1ccc(-c2ccc3c(C(=O)NCC(C)(C)OC(=O)CCl)nn(C)c3c2)cc1Cl [QW-774]
31.7 ± 19.5% | – | Cn1nc(C(=O)NC(C)(C)C(C)(C)OC(=O)CCl)c2ccc(-c3ccc(C(F)(F)F)c(Cl)c3)cc21 [QW-786]
−19.6 ± 18.2% | – | COc1ccc(-c2ccc3c(-n4cc(C(C)(C)CNC(=O)CCl)nn4)nn(C)c3c2)cc1Cl [QW-792]

Tested on: HT-1080 cells
Experiment: Cellular dose response assay, HT-1080 with and without Fer-1
Assay type: cell-based, human
Settings: HT1080 + Fer-1; read-out: IC50 (uM) HT1080 + Fer-1
Description: HT-1080 (human [Homo sapiens] […] fibrosarcoma), A-673 (human [Homo sapiens] […] Ewing's sarcoma), and SK-HEP-1 (human [Homo sapiens] […] hepatic adenocarcinoma), cells were obtained from ATCC. Huh7 (human [Homo sapiens] […] hepatocellular carcinoma), HLF (human [Homo sapiens] […] hepatocellular carcinoma), HepG2 (human [Homo sapiens] […] hepatocellular carcinoma), cells were obtained from the Cancer Cell Bank at Columbia University Irving Medical Center. HT-1080, A-673, Huh-7, and HLF cells were grown in Dulbecco's Modified Eagle Medium (DMEM) supplemented with 10% heat inactivated fetal bovine serum (HI-FBS), 1% non-essential amino acids, and 1% penicillin streptomycin. HepG2 and SK-HEP-1 cells were grown in Eagle's Minimum Essential Medium (EMEM) supplemented with 10% HI-FBS, and 1% penicillin-streptomycin. All cells were cultured at 37° C. and 5% CO2.
HT-1080, HepG2, Huh7, HLF, and SK-HEP-1 cells were seeded into opaque white 384-well plates at 1500 cells per well then incubated at 37° C. with 5% CO2 overnight. The next day, compounds of interest were dissolved in DMSO and 12-point 2-fold dilution series were prepared with and without Fer-1. Cells were treated in triplicate (final DMSO concentration of 0.4% in all wells, including DMSO-only control wells) and incubated for a further 48 hours at 37° C. and 5% CO2. Cell viability was evaluated using CellTiter-Glo (Promega G7573) and luminescence was recorded on a Victor 5 plate reader. Data were analyzed in GraphPad Prism 9 and error bars represent standard deviation values for three technical replicates in a representative experiment.

IC50 | SMILES
7.3 µM | COc1ccc(-c2ccc3c(C(=O)NC(C)(C)C(C)OC(=O)CCl)nn(C)c3c2)cc1Cl (racemic) [QW-736]
17.5 µM | CCOCCOc1ccc(-c2ccc3c(C(=O)NC(C)(C)COC(=O)CCl)nn(C)c3c2)cc1 [QW-605]
14 µM | Cn1nc(-n2cc(C(C)(C)COC(=O)CCl)nn2)c2ccc(-c3ccc(OC(F)(F)F)c(Cl)c3)cc21 [QW-677]
14.4 µM | Cn1nc(-c2nnc(C(C)(OC(=O)CCl)C(F)(F)F)o2)c2ccc(-c3ccc4c(c3)OCO4)cc21 (centres unmarked) [QW-695]
8.8 µM | Cn1nc(-n2cc(C(C)(C)COC(=O)CCl)nn2)c2ccc(-c3ccc4c(c3)OCO4)cc21 [QW-696]
31.7 µM | COc1c(Cl)cc(-c2ccc3c(C(=O)NC(C)(C)COC(=O)CCl)nn(C)c3c2)cc1Cl [QW-711]
28.4 µM | COc1c(Cl)cc(-c2ccc3c(-n4cc(C(C)(C)COC(=O)CCl)nn4)nn(C)c3c2)cc1Cl [QW-712]
24.1 µM | Cn1nc(C(=O)NC(C)(C)COC(=O)CCl)c2ccc(-c3ccc(OC(C)(C)C)cc3)cc21 [QW-715]
63 µM | CC(C)Oc1ncc(-c2ccc3c(C(=O)NC(C)(C)COC(=O)CCl)nn(C)c3c2)cn1 [QW-716]
2.8 µM | Cn1nc(C(=O)NC(C)(C)C(C)(C)OC(=O)CCl)c2ccc(-c3ccc(N4CCOCC4)c(Cl)c3)cc21 [QW-731]
23.9 µM | COc1ccc(-c2ccc3c(-n4cc(CCOC(=O)CCl)nn4)nn(C)c3c2)cc1Cl [QW-755]
2.5 µM | COc1ccc(-c2ccc3c(C(=O)NC(C)(C)C(C)(C)OC(=O)CCl)nn(C)c3c2)cc1Br [QW-766]
2.2 µM | Cn1nc(C(=O)NC(C)(C)C(C)(C)OC(=O)CCl)c2ccc(-c3ccc(OC(C)(C)C)cc3)cc21 [QW-770]
8.8 µM | COc1ccc(-c2ccc3c(C(=O)NCC(C)(C)OC(=O)CCl)nn(C)c3c2)cc1Cl [QW-774]
5.8 µM | Cn1nc(C(=O)NC(C)(C)C(C)(C)OC(=O)CCl)c2ccc(-c3ccc(C(F)(F)F)c(Cl)c3)cc21 [QW-786]
5.8 µM | COc1ccc(-c2ccc3c(-n4cc(C(C)(C)CNC(=O)CCl)nn4)nn(C)c3c2)cc1Cl [QW-792]

Same assay, conditions: HT1080, without Fer-1; read-out: IC50 (uM) HT1080

IC50 | SMILES
3.7 µM | COc1ccc(-c2ccc3c(C(=O)NC(C)(C)C(C)OC(=O)CCl)nn(C)c3c2)cc1Cl (racemic) [QW-736]
1.9 µM | CCOCCOc1ccc(-c2ccc3c(C(=O)NC(C)(C)COC(=O)CCl)nn(C)c3c2)cc1 [QW-605]
1.65 µM | Cn1nc(-n2cc(C(C)(C)COC(=O)CCl)nn2)c2ccc(-c3ccc(OC(F)(F)F)c(Cl)c3)cc21 [QW-677]
9.4 µM | Cn1nc(-c2nnc(C(C)(OC(=O)CCl)C(F)(F)F)o2)c2ccc(-c3ccc4c(c3)OCO4)cc21 (centres unmarked) [QW-695]
2.9 µM | Cn1nc(-n2cc(C(C)(C)COC(=O)CCl)nn2)c2ccc(-c3ccc4c(c3)OCO4)cc21 [QW-696]
1.4 µM | COc1c(Cl)cc(-c2ccc3c(C(=O)NC(C)(C)COC(=O)CCl)nn(C)c3c2)cc1Cl [QW-711]
1.9 µM | COc1c(Cl)cc(-c2ccc3c(-n4cc(C(C)(C)COC(=O)CCl)nn4)nn(C)c3c2)cc1Cl [QW-712]
2.6 µM | Cn1nc(C(=O)NC(C)(C)COC(=O)CCl)c2ccc(-c3ccc(OC(C)(C)C)cc3)cc21 [QW-715]
1.6 µM | CC(C)Oc1ncc(-c2ccc3c(C(=O)NC(C)(C)COC(=O)CCl)nn(C)c3c2)cn1 [QW-716]
1.2 µM | Cn1nc(C(=O)NC(C)(C)C(C)(C)OC(=O)CCl)c2ccc(-c3ccc(N4CCOCC4)c(Cl)c3)cc21 [QW-731]
9.5 µM | COc1ccc(-c2ccc3c(-n4cc(CCOC(=O)CCl)nn4)nn(C)c3c2)cc1Cl [QW-755]
1.2 µM | COc1ccc(-c2ccc3c(C(=O)NC(C)(C)C(C)(C)OC(=O)CCl)nn(C)c3c2)cc1Br [QW-766]
1 µM | Cn1nc(C(=O)NC(C)(C)C(C)(C)OC(=O)CCl)c2ccc(-c3ccc(OC(C)(C)C)cc3)cc21 [QW-770]
3.7 µM | COc1ccc(-c2ccc3c(C(=O)NCC(C)(C)OC(=O)CCl)nn(C)c3c2)cc1Cl [QW-774]
2.4 µM | Cn1nc(C(=O)NC(C)(C)C(C)(C)OC(=O)CCl)c2ccc(-c3ccc(C(F)(F)F)c(Cl)c3)cc21 [QW-786]
1.1 µM | COc1ccc(-c2ccc3c(-n4cc(C(C)(C)CNC(=O)CCl)nn4)nn(C)c3c2)cc1Cl [QW-792]

Same assay, conditions: RSL3 as control

SMILES | ferroptosis induction / potency in HT-1080 cells, result in words
COc1c(Cl)cc(-c2ccc3c(C(=O)NC(C)(C)COC(=O)CCl)nn(C)c3c2)cc1Cl [QW-711] | less potent compared to RSL3
COc1c(Cl)cc(-c2ccc3c(-n4cc(C(C)(C)COC(=O)CCl)nn4)nn(C)c3c2)cc1Cl [QW-712] | less potent compared to RSL3
Cn1nc(C(=O)NC(C)(C)COC(=O)CCl)c2ccc(-c3ccc(OC(C)(C)C)cc3)cc21 [QW-715] | more potent compared to RSL3
CC(C)Oc1ncc(-c2ccc3c(C(=O)NC(C)(C)COC(=O)CCl)nn(C)c3c2)cn1 [QW-716] | more potent compared to RSL3

Same assay, conditions: ferroptosis selectivity, HT1080 + Fer-1 vs HT1080

SMILES | Selectivity
COc1ccc(-c2ccc3c(C(=O)NC(C)(C)C(C)OC(=O)CCl)nn(C)c3c2)cc1Cl (racemic) [QW-736] | 2.0
CCOCCOc1ccc(-c2ccc3c(C(=O)NC(C)(C)COC(=O)CCl)nn(C)c3c2)cc1 [QW-605] | 9.2
Cn1nc(-n2cc(C(C)(C)COC(=O)CCl)nn2)c2ccc(-c3ccc(OC(F)(F)F)c(Cl)c3)cc21 [QW-677] | 8.5
Cn1nc(-c2nnc(C(C)(OC(=O)CCl)C(F)(F)F)o2)c2ccc(-c3ccc4c(c3)OCO4)cc21 (centres unmarked) [QW-695] | 1.5
Cn1nc(-n2cc(C(C)(C)COC(=O)CCl)nn2)c2ccc(-c3ccc4c(c3)OCO4)cc21 [QW-696] | 3.0
COc1c(Cl)cc(-c2ccc3c(C(=O)NC(C)(C)COC(=O)CCl)nn(C)c3c2)cc1Cl [QW-711] | 22.6
COc1c(Cl)cc(-c2ccc3c(-n4cc(C(C)(C)COC(=O)CCl)nn4)nn(C)c3c2)cc1Cl [QW-712] | 14.9
Cn1nc(C(=O)NC(C)(C)COC(=O)CCl)c2ccc(-c3ccc(OC(C)(C)C)cc3)cc21 [QW-715] | 9.3
CC(C)Oc1ncc(-c2ccc3c(C(=O)NC(C)(C)COC(=O)CCl)nn(C)c3c2)cn1 [QW-716] | 39.4
Cn1nc(C(=O)NC(C)(C)C(C)(C)OC(=O)CCl)c2ccc(-c3ccc(N4CCOCC4)c(Cl)c3)cc21 [QW-731] | 2.3
COc1ccc(-c2ccc3c(-n4cc(CCOC(=O)CCl)nn4)nn(C)c3c2)cc1Cl [QW-755] | 2.5
COc1ccc(-c2ccc3c(C(=O)NC(C)(C)C(C)(C)OC(=O)CCl)nn(C)c3c2)cc1Br [QW-766] | 2.1
Cn1nc(C(=O)NC(C)(C)C(C)(C)OC(=O)CCl)c2ccc(-c3ccc(OC(C)(C)C)cc3)cc21 [QW-770] | 2.2
COc1ccc(-c2ccc3c(C(=O)NCC(C)(C)OC(=O)CCl)nn(C)c3c2)cc1Cl [QW-774] | 2.4
Cn1nc(C(=O)NC(C)(C)C(C)(C)OC(=O)CCl)c2ccc(-c3ccc(C(F)(F)F)c(Cl)c3)cc21 [QW-786] | 2.6
COc1ccc(-c2ccc3c(-n4cc(C(C)(C)CNC(=O)CCl)nn4)nn(C)c3c2)cc1Cl [QW-792] | 5.3
